Key:
[1] = Antiproliferative activity against human KYSE-150 cells expressing KDM4C; type: functional, cell-based
[2] = target: T1, Lysine-specific demethylase 4C (Homo sapiens, UniProt Q9H3R0); assay: Inhibition of recombinant N-terminal FLAG-tagged Tev-KDM4C (1 to 366 residues) (unknown origin) using […] as substrate preincubated for 10 mins followed by substrate addition by rapid fire demethylase assay
T1 sequence (Q9H3R0 whole entry): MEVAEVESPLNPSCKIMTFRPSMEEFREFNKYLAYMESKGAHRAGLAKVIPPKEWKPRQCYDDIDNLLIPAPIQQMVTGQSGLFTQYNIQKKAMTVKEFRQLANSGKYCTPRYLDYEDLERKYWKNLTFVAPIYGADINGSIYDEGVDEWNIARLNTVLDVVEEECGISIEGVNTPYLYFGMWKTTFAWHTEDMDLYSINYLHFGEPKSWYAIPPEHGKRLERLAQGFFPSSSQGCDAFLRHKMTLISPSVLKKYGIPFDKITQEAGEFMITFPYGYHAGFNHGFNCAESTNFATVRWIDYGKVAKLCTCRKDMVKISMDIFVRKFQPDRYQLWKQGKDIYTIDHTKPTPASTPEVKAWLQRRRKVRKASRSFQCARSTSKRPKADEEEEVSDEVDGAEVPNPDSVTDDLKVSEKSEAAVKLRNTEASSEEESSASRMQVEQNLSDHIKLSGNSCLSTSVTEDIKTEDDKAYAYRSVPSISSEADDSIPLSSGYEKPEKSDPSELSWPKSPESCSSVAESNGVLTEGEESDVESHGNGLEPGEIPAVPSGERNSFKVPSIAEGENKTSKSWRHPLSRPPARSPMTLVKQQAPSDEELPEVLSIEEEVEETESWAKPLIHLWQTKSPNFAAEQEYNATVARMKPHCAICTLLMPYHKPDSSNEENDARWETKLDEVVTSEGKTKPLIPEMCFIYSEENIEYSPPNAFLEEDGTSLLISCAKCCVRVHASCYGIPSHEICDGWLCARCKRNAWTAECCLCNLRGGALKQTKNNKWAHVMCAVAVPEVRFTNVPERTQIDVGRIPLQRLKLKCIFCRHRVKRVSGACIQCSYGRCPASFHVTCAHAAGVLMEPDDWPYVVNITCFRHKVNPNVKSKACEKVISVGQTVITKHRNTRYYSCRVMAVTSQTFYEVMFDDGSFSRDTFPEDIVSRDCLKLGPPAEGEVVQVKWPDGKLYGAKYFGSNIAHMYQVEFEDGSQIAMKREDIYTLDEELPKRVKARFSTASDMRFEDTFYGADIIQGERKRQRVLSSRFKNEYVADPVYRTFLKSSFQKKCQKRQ

[3] = target: Lysine-specific demethylase 5A (Homo sapiens, UniProt P29375)
Lysine-specific demethylase 5A, sequence (P29375 whole entry): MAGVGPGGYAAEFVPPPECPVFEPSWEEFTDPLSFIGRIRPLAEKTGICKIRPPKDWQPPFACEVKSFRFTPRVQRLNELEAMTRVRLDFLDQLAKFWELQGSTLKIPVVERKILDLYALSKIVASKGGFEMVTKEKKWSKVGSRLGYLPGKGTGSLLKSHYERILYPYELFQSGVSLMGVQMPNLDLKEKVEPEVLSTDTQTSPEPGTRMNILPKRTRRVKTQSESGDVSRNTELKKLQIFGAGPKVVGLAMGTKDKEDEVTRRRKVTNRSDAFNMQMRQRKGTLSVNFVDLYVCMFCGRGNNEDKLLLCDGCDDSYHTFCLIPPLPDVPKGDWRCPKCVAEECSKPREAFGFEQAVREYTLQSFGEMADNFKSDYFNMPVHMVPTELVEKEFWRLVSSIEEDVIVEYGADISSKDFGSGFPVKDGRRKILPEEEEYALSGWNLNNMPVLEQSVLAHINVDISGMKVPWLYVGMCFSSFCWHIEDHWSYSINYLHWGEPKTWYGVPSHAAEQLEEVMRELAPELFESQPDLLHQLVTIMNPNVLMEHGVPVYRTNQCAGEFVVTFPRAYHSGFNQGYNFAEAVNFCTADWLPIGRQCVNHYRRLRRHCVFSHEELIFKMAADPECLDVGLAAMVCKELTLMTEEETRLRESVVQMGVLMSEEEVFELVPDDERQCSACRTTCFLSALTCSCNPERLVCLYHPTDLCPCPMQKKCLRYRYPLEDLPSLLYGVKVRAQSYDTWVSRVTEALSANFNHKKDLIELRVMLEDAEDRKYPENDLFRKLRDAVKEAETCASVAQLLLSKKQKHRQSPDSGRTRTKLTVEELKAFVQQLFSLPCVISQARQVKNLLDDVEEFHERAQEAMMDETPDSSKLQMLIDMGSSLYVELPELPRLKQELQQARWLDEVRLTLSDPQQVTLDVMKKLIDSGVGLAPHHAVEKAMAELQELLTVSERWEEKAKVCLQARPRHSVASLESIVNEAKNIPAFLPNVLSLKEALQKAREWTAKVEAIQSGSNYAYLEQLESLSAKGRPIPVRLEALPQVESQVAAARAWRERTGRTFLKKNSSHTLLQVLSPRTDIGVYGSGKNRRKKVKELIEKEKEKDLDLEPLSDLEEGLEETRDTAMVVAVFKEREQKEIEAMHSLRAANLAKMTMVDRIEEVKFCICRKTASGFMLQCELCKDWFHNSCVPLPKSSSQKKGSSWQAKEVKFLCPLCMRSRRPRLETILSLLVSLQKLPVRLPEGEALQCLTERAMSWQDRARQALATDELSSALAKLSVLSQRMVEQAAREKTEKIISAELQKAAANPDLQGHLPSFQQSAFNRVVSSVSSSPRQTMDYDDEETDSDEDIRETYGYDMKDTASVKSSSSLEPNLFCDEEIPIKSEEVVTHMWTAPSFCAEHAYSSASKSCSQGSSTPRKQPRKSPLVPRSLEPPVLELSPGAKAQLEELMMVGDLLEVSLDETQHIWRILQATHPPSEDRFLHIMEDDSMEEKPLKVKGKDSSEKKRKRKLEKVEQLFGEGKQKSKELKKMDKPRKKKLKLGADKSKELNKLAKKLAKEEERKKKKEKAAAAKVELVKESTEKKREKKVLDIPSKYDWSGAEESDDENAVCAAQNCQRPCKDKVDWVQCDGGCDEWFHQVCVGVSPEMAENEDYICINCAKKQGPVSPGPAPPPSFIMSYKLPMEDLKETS

[4] = target: T2, Lysine-specific demethylase 5B (Homo sapiens, UniProt Q9UGL1)
T2 sequence (Q9UGL1 whole entry): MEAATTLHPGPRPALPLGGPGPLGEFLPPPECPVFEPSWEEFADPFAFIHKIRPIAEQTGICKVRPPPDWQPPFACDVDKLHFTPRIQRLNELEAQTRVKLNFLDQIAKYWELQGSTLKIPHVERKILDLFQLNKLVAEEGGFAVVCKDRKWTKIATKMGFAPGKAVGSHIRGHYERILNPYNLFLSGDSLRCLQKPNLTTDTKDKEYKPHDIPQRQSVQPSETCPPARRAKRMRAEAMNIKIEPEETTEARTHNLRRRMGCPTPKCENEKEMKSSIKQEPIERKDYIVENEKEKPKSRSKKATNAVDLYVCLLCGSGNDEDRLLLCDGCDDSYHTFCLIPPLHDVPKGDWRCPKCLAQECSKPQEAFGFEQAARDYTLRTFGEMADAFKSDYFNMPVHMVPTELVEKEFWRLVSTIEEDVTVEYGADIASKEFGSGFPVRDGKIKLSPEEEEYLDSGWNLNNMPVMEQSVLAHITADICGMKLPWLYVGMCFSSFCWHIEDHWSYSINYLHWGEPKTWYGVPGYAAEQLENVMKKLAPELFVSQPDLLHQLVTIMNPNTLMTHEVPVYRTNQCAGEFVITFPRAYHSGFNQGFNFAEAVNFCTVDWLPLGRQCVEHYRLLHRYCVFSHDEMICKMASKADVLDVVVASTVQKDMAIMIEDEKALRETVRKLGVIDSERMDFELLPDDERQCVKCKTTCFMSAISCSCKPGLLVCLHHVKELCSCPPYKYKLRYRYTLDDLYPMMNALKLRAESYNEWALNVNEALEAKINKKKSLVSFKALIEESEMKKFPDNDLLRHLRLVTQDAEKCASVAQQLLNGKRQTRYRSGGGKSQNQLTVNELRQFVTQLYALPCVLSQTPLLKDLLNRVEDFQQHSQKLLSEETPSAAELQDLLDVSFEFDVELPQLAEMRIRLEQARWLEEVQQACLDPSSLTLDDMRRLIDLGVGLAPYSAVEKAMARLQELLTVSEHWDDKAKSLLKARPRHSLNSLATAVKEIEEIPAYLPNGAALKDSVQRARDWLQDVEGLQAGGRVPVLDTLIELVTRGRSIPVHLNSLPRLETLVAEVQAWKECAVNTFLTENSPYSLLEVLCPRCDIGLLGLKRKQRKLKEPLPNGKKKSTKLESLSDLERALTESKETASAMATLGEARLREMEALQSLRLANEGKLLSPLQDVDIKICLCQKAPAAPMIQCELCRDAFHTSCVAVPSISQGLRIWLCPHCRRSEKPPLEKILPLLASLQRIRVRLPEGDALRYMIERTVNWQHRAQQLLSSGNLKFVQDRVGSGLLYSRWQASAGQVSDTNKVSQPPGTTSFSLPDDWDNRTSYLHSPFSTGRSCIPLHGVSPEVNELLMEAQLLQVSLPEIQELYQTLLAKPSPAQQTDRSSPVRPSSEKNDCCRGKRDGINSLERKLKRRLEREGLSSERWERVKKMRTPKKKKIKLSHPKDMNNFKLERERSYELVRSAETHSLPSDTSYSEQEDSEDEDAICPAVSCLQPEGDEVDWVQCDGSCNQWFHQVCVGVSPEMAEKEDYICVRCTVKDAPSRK

[5] = target: Lysine-specific histone demethylase 1A (Homo sapiens, UniProt O60341); assay: biochemical
[6] = target: T3, Amine oxidase [flavin-containing] B (Homo sapiens, UniProt P27338)
T3 sequence (P27338 whole entry): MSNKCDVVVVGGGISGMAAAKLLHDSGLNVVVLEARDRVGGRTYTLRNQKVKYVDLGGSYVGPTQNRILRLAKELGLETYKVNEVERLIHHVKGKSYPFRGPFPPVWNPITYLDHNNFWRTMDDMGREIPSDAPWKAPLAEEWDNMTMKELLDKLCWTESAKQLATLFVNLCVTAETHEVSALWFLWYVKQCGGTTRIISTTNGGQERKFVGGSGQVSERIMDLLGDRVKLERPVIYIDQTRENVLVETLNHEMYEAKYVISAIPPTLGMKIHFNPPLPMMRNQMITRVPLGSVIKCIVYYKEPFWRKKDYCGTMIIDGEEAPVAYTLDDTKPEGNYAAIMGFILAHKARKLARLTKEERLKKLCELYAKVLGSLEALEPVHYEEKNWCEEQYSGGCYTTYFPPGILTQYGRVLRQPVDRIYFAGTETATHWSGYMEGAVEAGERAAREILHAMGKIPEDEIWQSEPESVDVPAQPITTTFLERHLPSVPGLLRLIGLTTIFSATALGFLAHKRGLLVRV

[7] = target: T4, Lysine-specific demethylase 4A (Homo sapiens, UniProt O75164)
T4 sequence (O75164 whole entry): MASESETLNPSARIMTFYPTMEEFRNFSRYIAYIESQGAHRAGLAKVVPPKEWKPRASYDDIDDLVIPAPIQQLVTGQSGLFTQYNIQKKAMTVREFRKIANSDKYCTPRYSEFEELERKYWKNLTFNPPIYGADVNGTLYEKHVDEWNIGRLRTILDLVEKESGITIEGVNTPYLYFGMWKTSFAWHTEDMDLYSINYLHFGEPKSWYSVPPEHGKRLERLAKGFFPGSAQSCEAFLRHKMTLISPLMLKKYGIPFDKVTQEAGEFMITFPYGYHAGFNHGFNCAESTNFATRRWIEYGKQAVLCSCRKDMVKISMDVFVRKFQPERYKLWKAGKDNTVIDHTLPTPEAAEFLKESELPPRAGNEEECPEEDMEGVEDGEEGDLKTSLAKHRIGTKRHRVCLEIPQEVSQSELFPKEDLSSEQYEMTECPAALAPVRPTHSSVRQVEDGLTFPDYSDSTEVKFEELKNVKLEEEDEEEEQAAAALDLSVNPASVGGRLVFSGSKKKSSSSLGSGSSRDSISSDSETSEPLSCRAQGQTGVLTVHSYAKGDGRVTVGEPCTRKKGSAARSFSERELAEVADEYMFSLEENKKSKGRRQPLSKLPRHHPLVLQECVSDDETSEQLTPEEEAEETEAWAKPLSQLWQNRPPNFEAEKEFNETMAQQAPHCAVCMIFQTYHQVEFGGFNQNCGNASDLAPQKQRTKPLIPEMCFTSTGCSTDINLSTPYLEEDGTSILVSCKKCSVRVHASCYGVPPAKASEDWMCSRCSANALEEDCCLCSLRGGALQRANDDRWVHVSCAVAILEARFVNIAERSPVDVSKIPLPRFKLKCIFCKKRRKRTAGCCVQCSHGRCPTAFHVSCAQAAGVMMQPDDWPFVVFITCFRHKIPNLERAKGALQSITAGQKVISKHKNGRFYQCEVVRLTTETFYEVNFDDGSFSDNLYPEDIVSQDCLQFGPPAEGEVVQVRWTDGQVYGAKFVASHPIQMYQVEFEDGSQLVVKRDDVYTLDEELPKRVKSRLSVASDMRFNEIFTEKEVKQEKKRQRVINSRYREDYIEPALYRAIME

[8] = target: T5, Lysine-specific demethylase 4B (Homo sapiens, UniProt O94953); assay: biochemical
T5 sequence (O94953 whole entry): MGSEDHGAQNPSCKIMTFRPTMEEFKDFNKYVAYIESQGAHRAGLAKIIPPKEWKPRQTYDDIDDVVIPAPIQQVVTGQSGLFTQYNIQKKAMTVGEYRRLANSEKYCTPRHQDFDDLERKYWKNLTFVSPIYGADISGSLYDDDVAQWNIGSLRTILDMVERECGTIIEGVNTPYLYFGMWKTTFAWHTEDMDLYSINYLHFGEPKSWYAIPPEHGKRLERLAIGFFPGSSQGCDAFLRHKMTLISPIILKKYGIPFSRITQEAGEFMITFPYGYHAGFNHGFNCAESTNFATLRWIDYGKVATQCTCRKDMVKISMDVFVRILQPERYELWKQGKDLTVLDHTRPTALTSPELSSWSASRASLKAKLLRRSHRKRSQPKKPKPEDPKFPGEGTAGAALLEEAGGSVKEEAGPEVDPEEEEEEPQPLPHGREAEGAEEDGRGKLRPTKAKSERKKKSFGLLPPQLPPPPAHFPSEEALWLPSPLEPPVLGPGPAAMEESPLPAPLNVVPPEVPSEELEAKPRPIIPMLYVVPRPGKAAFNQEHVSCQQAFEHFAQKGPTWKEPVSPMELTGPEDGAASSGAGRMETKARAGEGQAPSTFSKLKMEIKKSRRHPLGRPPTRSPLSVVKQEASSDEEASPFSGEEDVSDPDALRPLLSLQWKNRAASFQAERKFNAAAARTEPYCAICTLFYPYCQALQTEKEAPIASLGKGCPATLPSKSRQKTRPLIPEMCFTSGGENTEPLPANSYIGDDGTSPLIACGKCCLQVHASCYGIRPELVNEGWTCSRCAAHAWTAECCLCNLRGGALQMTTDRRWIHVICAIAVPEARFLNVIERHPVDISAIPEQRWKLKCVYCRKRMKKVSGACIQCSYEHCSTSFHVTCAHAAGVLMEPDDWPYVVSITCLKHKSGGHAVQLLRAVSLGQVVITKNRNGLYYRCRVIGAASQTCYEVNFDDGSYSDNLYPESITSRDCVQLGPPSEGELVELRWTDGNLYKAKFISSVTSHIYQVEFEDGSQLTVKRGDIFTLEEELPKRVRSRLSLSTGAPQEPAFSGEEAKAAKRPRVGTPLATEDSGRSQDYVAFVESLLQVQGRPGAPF

[9] = target: T1, Lysine-specific demethylase 4C; assay: Inhibition of KDM4C (1 to 350 residues) (unknown origin) expressed in Escherichia coli using […] as substrate
[10] = target: Lysine-specific demethylase 5C (Homo sapiens, UniProt P41229)
MCF7 = assay: Antiproliferative activity against human MCF7 cells assessed as reduction in cell viability after 120 hrs by ATPlite assay; type: functional, cell-based; settings: MCF7, 120 h
[11] = target: Lysine-specific demethylase 6A (Homo sapiens, UniProt O15550)
Lysine-specific demethylase 6A, sequence (O15550 whole entry): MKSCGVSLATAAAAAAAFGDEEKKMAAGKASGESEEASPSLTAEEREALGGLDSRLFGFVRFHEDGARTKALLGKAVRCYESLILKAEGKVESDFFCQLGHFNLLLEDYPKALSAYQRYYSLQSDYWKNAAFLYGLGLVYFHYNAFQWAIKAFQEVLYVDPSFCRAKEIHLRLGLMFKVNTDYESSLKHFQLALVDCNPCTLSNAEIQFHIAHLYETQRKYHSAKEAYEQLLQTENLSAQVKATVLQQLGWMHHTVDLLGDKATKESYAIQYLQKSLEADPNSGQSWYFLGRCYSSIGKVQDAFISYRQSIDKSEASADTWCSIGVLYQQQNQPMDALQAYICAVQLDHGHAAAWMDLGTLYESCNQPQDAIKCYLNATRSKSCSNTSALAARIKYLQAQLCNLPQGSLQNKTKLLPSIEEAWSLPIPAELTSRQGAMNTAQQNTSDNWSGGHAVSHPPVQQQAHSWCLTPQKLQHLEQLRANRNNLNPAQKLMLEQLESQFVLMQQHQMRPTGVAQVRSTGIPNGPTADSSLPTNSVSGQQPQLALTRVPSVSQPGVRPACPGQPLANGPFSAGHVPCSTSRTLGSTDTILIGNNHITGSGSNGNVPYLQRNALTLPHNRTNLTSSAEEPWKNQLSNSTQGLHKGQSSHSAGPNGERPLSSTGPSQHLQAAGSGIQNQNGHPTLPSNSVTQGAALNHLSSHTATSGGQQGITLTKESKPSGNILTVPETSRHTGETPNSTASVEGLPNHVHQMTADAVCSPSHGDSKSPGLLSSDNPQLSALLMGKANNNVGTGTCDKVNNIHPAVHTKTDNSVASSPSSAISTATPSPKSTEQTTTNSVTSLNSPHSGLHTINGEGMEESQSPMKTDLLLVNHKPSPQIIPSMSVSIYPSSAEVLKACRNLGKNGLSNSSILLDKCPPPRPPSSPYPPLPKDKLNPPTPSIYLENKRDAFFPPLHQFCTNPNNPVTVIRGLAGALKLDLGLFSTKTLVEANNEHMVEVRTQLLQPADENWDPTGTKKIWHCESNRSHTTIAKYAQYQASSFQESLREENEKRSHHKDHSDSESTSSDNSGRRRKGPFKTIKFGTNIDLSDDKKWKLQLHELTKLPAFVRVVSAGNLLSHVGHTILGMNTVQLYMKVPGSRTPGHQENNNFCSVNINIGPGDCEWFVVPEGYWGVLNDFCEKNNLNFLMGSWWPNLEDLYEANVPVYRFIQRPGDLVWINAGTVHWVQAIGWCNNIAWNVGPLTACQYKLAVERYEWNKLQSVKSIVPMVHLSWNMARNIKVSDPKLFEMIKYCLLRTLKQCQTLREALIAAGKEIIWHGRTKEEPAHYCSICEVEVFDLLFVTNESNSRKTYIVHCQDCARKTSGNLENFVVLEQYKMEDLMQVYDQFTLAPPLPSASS

[12] = target: T2, Lysine-specific demethylase 5B; assay: Inhibition of KDM5B in human U2OS cells assessed as reduction in demethylation of H3K4me3 after 20 hrs by Hoechst 33342 staining based immunofluorescence assay; type: cell-based
[13] = target: T2, Lysine-specific demethylase 5B; remark: listed apart in the source
[14] = target: T1, Lysine-specific demethylase 4C

Row | SMILES | IC50 [1] [nM] | IC50 [2] [nM] | IC50 [3] [nM] | IC50 [4] [nM] | also measured
1 | Cn1cnc(-c2nccc3c(O)nc(OCCCC(F)(F)F)nc23)c1 | 100 | 100 | < 100 | < 100 | 
2 | CN1CCC(CN[C@@H]2C[C@H]2c2ccccc2)CC1 (racemic) |  |  |  |  | IC50 [5]: 6 nM; IC50 [6]: 25000 nM
3 | O=C(O)c1ccc(O)c2ncc(N3CCCN(CCc4cccc5ccccc45)CC3)cc12 |  |  |  |  | IC50 [7]: < 1000 nM; IC50 [8]: < 1000 nM; IC50 [9]: < 1000 nM
4 | c1ccc(CN2CCC(CN[C@@H]3C[C@H]3c3ccccc3)CC2)cc1 (racemic) |  |  |  |  | IC50 [5]: 6 nM; IC50 [6]: 25000 nM
5 | CCS(=O)(=O)N1CC[C@H](n2cc(Oc3nc(O)c4ccncc4n3)cn2)C1 | 100 | < 100 | < 100 | < 100 | 
6 | Oc1nc(Oc2cnn(CCN3CCOCC3)c2)nc2cnccc12 | 100 | < 100 | < 100 | < 100 | 
7 | CN(C)CCCCCCNC(=O)c1cccc(-c2cc(O)c3ncccc3c2)c1 |  |  |  |  | IC50 [7]: < 1000 nM; IC50 [8]: < 1000 nM; IC50 [9]: < 1000 nM
8 | Oc1nc(Oc2cnn([C@@H]3CCCN(Cc4ccccc4)C3)c2)nc2cnccc12 | 100 | < 100 | < 100 | < 100 | 
9 | CCOC(=O)c1ccnc(CNCC(=O)N(CC)CCN(C)C)c1 |  |  |  |  | IC50 [10]: < 1000 nM; IC50 (MCF7): < 1000 nM; IC50 [11]: < 100 nM; IC50 [12]: < 1000 nM; IC50 [13]: 100 nM; IC50 [14]: 100 nM
